Experimental data reported in article PMC7129073 (Clinical Microbiology and Infection, 2015).
Values after ≈ are worked out from the molar mass of the structure shown. Marks after values point to notes of the source that are not given here.

Columns and labels:
H.influenzae = test: Broth microdilution; assay type: cell-based, Haemophilus influenzae
[1] = tested on: Other non-fermenting bacteria; test: Sensitivity of CAP pathogens with/without antibiotic pretreatment; assay type: cell-based
P. jirovecii = P. jirovecii colonisation; assay type: in vivo, human; settings: none developed PcP in one year
S. -pneumoniae = test: Sensitivity of CAP pathogens with/without antibiotic pretreatment; assay type: cell-based, Streptococcus pneumoniae
H. influenzae [2] = test: as above; assay type: cell-based, Haemophilus influenzae
PRSP = test: Broth microdilution; assay type: cell-based, Streptococcus pneumoniae
S. pneumoniae [3] = test: Broth microdilution; assay type: cell-based, Streptococcus pneumoniae
[4] = tested on: pathogens in community acquired pneumonia of different severity; test: Sensitivity of CAP pathogens by Fine severity group; assay type: cell-based
Kl. pneumoniae = test: Sensitivity of CAP pathogens with/without antibiotic pretreatment; assay type: cell-based, Klebsiella pneumoniae
[5] = tested on: Total pathogens in community acquired pneumonia; test: as above; assay type: cell-based; settings: after pretreatment, Abs. 48
S. pyogenes = test: as above; assay type: cell-based, Streptococcus pyogenes; settings: Abs. 4
S. pneumoniae [6] = test: E-test MIC, children with URTI, Brazil; assay type: cell-based, Streptococcus pneumoniae
ERSP = test: Broth microdilution; assay type: cell-based, Streptococcus pneumoniae
Staph. coaq (−) = test: Sensitivity of CAP pathogens with/without antibiotic pretreatment; assay type: cell-based, coagulase-negative Staphylococcus
[7] = tested on: Moraxella catarrhalis (MC); test: MIC; assay type: cell-based; settings: 2497 isolates
[8] = tested on: Streptococcus pyogenes (SPY); test: MIC; assay type: cell-based; settings: 2522 isolates
Other Haemophilus sp. = test: Sensitivity of CAP pathogens with/without antibiotic pretreatment; assay type: cell-based; settings: after pretreatment, Abs. 11
E. coli = test: as above; assay type: cell-based, Escherichia coli
Enterococcus sp = test: as above; assay type: cell-based
N.gonorrhoeae = test: microbe, parasite or virus in culture; assay type: cell-based; settings: Neisseria gonorrhoeae
S. aureus [9] = test: Sensitivity of CAP pathogens with/without antibiotic pretreatment; assay type: cell-based, Staphylococcus aureus; settings: after pretreatment, Abs. 4
Other Enterobacteriacae = test: as above; assay type: cell-based, Enterobacteriaceae
P. aeruginosa = test: as above; assay type: cell-based, Pseudomonas aeruginosa; settings: Abs. 3
E. faecium [10] = test: NCCLS broth microdilution MIC, 50 mg/L calcium; assay type: cell-based
[11] = tested on: coagulase-negative Staphylococci; test: NCCLS broth microdilution MIC, 50 mg/L calcium; assay type: cell-based
MDR-MRSA = test: MIC, MBC; assay type: cell-based, Staphylococcus aureus; settings: time kill, two strains
S. aureus [12] = test: NCCLS broth microdilution MIC, 50 mg/L calcium; assay type: cell-based
CA-MRSA = test: MIC, MBC; assay type: cell-based, Staphylococcus aureus
MRSA = test: Disk diffusion; assay type: cell-based, Staphylococcus aureus; settings: 200 isolates
E. faecalis [13] = test: NCCLS broth microdilution MIC, 50 mg/L calcium; assay type: cell-based
[14] = tested on: beta-haemolytic Streptococcus spp.; test: NCCLS broth microdilution MIC, 50 mg/L calcium; assay type: cell-based
Enterococcus spp. = test: NCCLS broth microdilution MIC, 50 mg/L calcium; assay type: cell-based
[15] = tested on: viridans group Streptococcus spp.; test: NCCLS broth microdilution MIC, 50 mg/L calcium; assay type: cell-based
[16] = tested on: viridans group streptococci (VgS) and Streptococcus bovis; test: Broth microdilution and disk diffusion; assay type: cell-based
H. influenzae [17] = test: MIC, NCCLS methods; assay type: cell-based; settings: Haemophilus influenzae
B. pertussis = test: MIC, NCCLS methods; assay type: cell-based; settings: N=10
H. parainfluenzae = test: MIC, NCCLS methods; assay type: cell-based; settings: Haemophilus parainfluenzae
[18] = tested on: methicillin resistant Staphylococcus aureus; test: NCCLS agar dilution MIC; assay type: cell-based; settings: Staphylococcus aureus
S. pneumoniae [19] = test: MIC, NCCLS methods; assay type: cell-based; settings: Streptococcus pneumoniae
A. haemolyticum = test: MIC, NCCLS methods; assay type: cell-based; settings: N=9
N meningitidis = test: MIC, NCCLS methods; assay type: cell-based
M. catarrhalis = test: MIC, NCCLS methods; assay type: cell-based; settings: Moraxella catarrhalis
E. faecalis [20] = test: MIC, NCCLS methods; assay type: cell-based; settings: Enterococcus faecalis
E. faecium [21] = test: MIC, NCCLS methods; assay type: cell-based; settings: Enterococcus faecium
Streptococcus spp = test: MIC, NCCLS methods; assay type: cell-based
S. progenies = test: MIC, NCCLS methods; assay type: cell-based; settings: Streptococcus pyogenes
[22] = tested on: methicillin susceptible Staphylococcus aureus; test: NCCLS agar dilution MIC; assay type: cell-based; settings: Staphylococcus aureus
S. aureus (MR) = test: MIC, NCCLS methods; assay type: cell-based; settings: Staphylococcus aureus
S. aureus (MS) = test: MIC, NCCLS methods; assay type: cell-based; settings: Staphylococcus aureus
[23] = NCCLS breakpoints (Amox/Clav 2/1 mcg/mL)

CC[C@H]1OC(=O)[C@H](C)[C@@H](O[C@H]2C[C@@](C)(OC)[C@@H](O)[C@H](C)O2)[C@H](C)[C@@H](O[C@@H]2O[C@H](C)C[C@H](N(C)C)[C@H]2O)[C@](C)(O)C[C@@H](C)CN(C)[C@H](C)[C@@H](O)[C@]1(C)O [azithromycin]
MIC90 (H.influenzae; Haemophilus influenzae): 2 µg/mL (≈ 2.67 µM)
%Sus (H.influenzae; NCCLS): 99.1%
% of sensitive strains ([1]; after pretreatment, Abs. 0): 0.0%
% of sensitive strains ([1]; without pretreatment, Abs. 1): 0,0%
patients receiving prophylaxis who were colonized (P. jirovecii): 17.2%
% of sensitive strains (S. -pneumoniae; after antibiotic pretreatment, Abs. 3): 100.0%
% of sensitive strains (S. -pneumoniae; without antibiotic pretreatment, Abs. 13): 100,0%
% of sensitive strains (H. influenzae [2]; after pretreatment, Abs. 10): 100.0%
% of sensitive strains (H. influenzae [2]; without pretreatment, Abs. 26): 100.0%
%Sus (PRSP; [23]): 23.0%
MIC90 (PRSP; Streptococcus pneumoniae, PRSP): > 32 µg/mL
%Sus (S. pneumoniae [3]; [23]): 71.4%
MIC90 (S. pneumoniae [3]; Streptococcus pneumoniae): > 32 µg/mL
sensitivity, total strains ([4]; higher severity group (Fine scores >70)): 60.0%
sensitivity, total strains ([4]; lower severity group (Fine scores <70)): 73.6%
% of sensitive strains (Kl. pneumoniae; after pretreatment, Abs. 5): 0.0%
% of sensitive strains (Kl. pneumoniae; without pretreatment, Abs. 4): 0,0%
% of sensitive strains [5]: 66.7%
% of sensitive strains (S. pyogenes; after pretreatment): 100.0%
% of sensitive strains (S. pyogenes; without pretreatment): 100,0%
intermediate (I) (S. pneumoniae [6]; 137 isolates): 1.5%
resistant (R) (S. pneumoniae [6]; 137 isolates): 8%
susceptible (S) (S. pneumoniae [6]; 137 isolates): 90.5%
MIC90 (S. pneumoniae [6]; Streptococcus pneumoniae): 4 µg/mL (≈ 5.34 µM)
%Sus (ERSP; [23]): 0.3%
MIC90 (ERSP; Streptococcus pneumoniae): > 32 µg/mL
% of sensitive strains (Staph. coaq (−); after pretreatment, Abs. 2): 50.0%
% of sensitive strains (Staph. coaq (−); without pretreatment, Abs. 4): 75.0%
MIC90 [7]: 0.25 ig/ml
MIC90 [8]: 0.5 ig/ml
% of sensitive strains (Other Haemophilus sp.): 100.0%
% of sensitive strains (E. coli; after pretreatment, Abs. 1): 0.0%
% of sensitive strains (E. coli; without pretreatment, Abs. 5): 0,0%
% of sensitive strains (Enterococcus sp; after pretreatment, Abs. 0): 0.0%
% of sensitive strains (Enterococcus sp; without pretreatment, Abs. 1): 0,0%
MIC (N.gonorrhoeae; strain 76mu6): 0.25 µg/mL (≈ 0.334 µM)
MIC (N.gonorrhoeae; strain 76mu10): 0.25 µg/mL (≈ 0.334 µM)
% of sensitive strains (S. aureus [9]): 75.0%
% of sensitive strains (Other Enterobacteriacae; after pretreatment, Abs. 5): 0.0%
% of sensitive strains (Other Enterobacteriacae; without pretreatment, Abs. 2): 0,0%
% of sensitive strains (P. aeruginosa; after pretreatment): 0.0%
% of sensitive strains (P. aeruginosa; without pretreatment): 0,0%

CCCCCCCCCC(=O)N[C@@H](Cc1c[nH]c2ccccc12)C(=O)N[C@H](CC(N)=O)C(=O)N[C@@H](CC(=O)O)C(=O)N[C@@H]1C(=O)NCC(=O)N[C@@H](CCCN)C(=O)N[C@@H](CC(=O)O)C(=O)N[C@H](C)C(=O)N[C@@H](CC(=O)O)C(=O)NCC(=O)N[C@H](CO)C(=O)N[C@@H]([C@H](C)CC(=O)O)C(=O)N[C@@H](CC(=O)c2ccccc2N)C(=O)O[C@@H]1C [daptomycin]
% S (E. faecium [10]; VAN-G (77)): 97.4%
MIC range (E. faecium [10]; VAN-G (77)): 1—8 mg/L
% S (E. faecium [10]; VAN-R): 100.0%
MIC range (E. faecium [10]; VAN-R): 1—4 mg/L
% S ([11]; OXA-R): 100.0%
MIC range ([11]; OXA-R): ≤0.06 to 1 µg/mL
% S ([11]; OXA-S): 100.0%
MIC range ([11]; OXA-S): 0.12 to 1 µg/mL
Δ Log10 CFU/ml (MDR-MRSA): −4.12 Log10 CFU/ml
% S (S. aureus [12]; OXA-R): 99.0%
MIC range (S. aureus [12]; OXA-R): 0.12 to 2 µg/mL
% S (S. aureus [12]; OXA-S): 99.9%
MIC range (S. aureus [12]; OXA-S): ≤0.06 to 2 µg/mL
time to 99.9% kill, as early as (CA-MRSA; against all strains (CA-MRSA and MDR-MRSA)): 4 h
Δ Log10 CFU/ml (CA-MRSA; time kill, two strains): −3.88 Log10 CFU/ml
sensitivity (MRSA): All isolates were sensitive
% S (E. faecalis [13]): 100.0%
MIC range (E. faecalis [13]): ≤0.06 to 4 µg/mL
% S [14]: 100.0%
MIC range [14]: ≤0.06 to 0.5 µg/mL
% S (Enterococcus spp.): 100.0%
MIC range (Enterococcus spp.): 0.5 to 4 µg/mL
MIC range [15]: ≤0.06 to 2 µg/mL
MIC90, range between species [16]: 0.06 − 1 mg/L
Susceptible isolates ([16]; 915 isolates, daptomycin breakpoint ≤ 1 mg/L): 99.9%

CC[C@H]1OC(=O)[C@H](C)[C@@H](O[C@H]2C[C@@](C)(OC)[C@@H](O)[C@H](C)O2)[C@H](C)[C@@H](O[C@@H]2O[C@H](C)C[C@H](N(C)C)[C@H]2O)[C@](C)(O)C[C@@H](C)C(=O)[C@H](C)[C@@H](O)[C@]1(C)O [Erythromycin A, erythromycin A]
MIC50 (H. influenzae [17]): 4 µg/mL (≈ 5.45 µM)
MIC90 (H. influenzae [17]): 8 µg/mL (≈ 10.9 µM)
MIC range (B. pertussis): 0.06 to 0.12 µg/mL
MIC50 (H. parainfluenzae): 2 µg/mL (≈ 2.73 µM)
MIC90 (H. parainfluenzae): 8 µg/mL (≈ 10.9 µM)
MIC50 [18]: > 64 µg/mL
MIC90 [18]: > 64 µg/mL
MIC50 (S. pneumoniae [19]): > 32 µg/mL
MIC90 (S. pneumoniae [19]): > 32 µg/mL
MIC range (A. haemolyticum): ≤0.015-0.03 ^* mg/L
MIC50 (N meningitidis): 0.12 µg/mL (≈ 0.164 µM)
MIC90 (N meningitidis): 0.25 µg/mL (≈ 0.341 µM)
MIC50 (M. catarrhalis): 0.12 µg/mL (≈ 0.164 µM)
MIC90 (M. catarrhalis): 0.12 µg/mL (≈ 0.164 µM)
MIC50 (E. faecalis [20]): > 64 µg/mL
MIC90 (E. faecalis [20]): > 64 µg/mL
MIC50 (E. faecium [21]): > 64 µg/mL
MIC90 (E. faecium [21]): > 64 µg/mL
MIC50 (Streptococcus spp): 0.06 µg/mL (≈ 0.0818 µM)
MIC90 (Streptococcus spp): 0.12 µg/mL (≈ 0.164 µM)
MIC50 (S. progenies): > 64 µg/mL
MIC90 (S. progenies): > 64 µg/mL
MIC50 [22]: 0.25 µg/mL (≈ 0.341 µM)
MIC90 [22]: > 64 µg/mL
MIC50 (S. aureus (MR)): > 64 µg/mL
MIC90 (S. aureus (MR)): > 64 µg/mL
MIC50 (S. aureus (MS)): 0.25 µg/mL (≈ 0.341 µM)
MIC90 (S. aureus (MS)): > 64 µg/mL
